Data on nine compounds can be found in patent publication US20230192700A1, “PYRAZOLOPYRAZINES ACTING ON CANCERS VIA INHIBITION OF CDK12” (Bayer Aktiengesellschaft, priority 2020, published 2023).

The target in the test is T1, CDK9/CyclinT1 (Homo sapiens, UniProt P50750).
T1 construct: Recombinant full-length His-tagged human CDK9 and CycT1; His-tag; purchased Life Technologies PV4131; host or cells: insect cells
T1 sequence (P50750 whole entry): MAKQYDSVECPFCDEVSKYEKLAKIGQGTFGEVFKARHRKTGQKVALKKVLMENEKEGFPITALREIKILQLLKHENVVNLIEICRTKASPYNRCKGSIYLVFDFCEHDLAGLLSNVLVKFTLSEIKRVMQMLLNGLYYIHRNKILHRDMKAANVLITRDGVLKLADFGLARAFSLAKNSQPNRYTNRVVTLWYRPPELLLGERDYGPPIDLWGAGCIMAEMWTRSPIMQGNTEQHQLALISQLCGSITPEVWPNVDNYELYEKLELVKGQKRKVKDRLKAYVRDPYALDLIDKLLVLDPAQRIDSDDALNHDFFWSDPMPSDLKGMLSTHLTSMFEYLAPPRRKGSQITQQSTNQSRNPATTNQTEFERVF
T1 sequence (O60563 whole entry partner): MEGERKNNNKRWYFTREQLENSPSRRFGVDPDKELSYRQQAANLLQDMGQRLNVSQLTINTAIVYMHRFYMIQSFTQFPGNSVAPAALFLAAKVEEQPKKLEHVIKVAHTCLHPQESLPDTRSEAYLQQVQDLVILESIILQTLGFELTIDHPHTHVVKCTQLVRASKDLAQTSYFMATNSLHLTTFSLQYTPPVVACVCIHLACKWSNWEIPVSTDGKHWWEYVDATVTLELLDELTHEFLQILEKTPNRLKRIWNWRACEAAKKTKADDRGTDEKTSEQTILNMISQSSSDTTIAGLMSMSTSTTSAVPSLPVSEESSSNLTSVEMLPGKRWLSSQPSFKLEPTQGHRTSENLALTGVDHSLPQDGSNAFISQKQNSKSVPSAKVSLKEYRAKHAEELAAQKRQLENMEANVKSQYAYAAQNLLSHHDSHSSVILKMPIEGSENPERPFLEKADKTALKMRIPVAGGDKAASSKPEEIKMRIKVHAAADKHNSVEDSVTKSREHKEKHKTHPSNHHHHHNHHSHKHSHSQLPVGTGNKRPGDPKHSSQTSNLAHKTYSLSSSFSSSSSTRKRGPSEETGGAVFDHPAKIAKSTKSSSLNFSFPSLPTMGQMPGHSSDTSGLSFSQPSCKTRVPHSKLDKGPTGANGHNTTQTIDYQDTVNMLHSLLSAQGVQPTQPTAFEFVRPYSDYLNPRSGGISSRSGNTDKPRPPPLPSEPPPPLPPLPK
In words: CDK9/CycT1 high ATP kinase assay (TR-FRET). The class given is biochemical. The following applies: 2 mM ATP (high ATP); median; read-out: CDK9/CyclinT1, 2 mM ATP (high ATP) IC50 - [mol/l] (median). The method, then: 2.5 CDK9/CycT1 High ATP Kinase Assay
CDK9/CycT1 -inhibitory activity of compounds of the present invention at a high ATP concentration after preincubation of enzyme and test compounds was quantified employing the CDK9/CycT1 TR-FRET assay as described in the following paragraphs.
Recombinant full-length His-tagged human CDK9 and CycT1, expressed in insect cells and purified by Ni-NTA affinity chromatography, were purchased from Life Technologies (Cat. No PV4131). As substrate for the kinase reaction biotinylated peptide biotin-Ttds-YISPLKSPYKISEG (C-terminus in amide form) was used which can be purchased e.g. form the company JERINI peptide technologies (Berlin, Germany).
For the assay 50 nanoL of a 100 fold concentrated solution of the test compound in DMSO was pipetted into either a black low volume 384 well microtiter plate or a black 1536 well microtiter plate (both Greiner Bio-One, Frickenhausen, Germany), 2 microL of a solution of CDK9/CycT1 in aqueous assay buffer [50 millimol/L Tris/HCl pH 8.0, 10 millimol/L MgCl2, 1.0 millimol/L dithiothreitol, 0.1 millimol/L sodium ortho-vanadate, 0.01% (v/v) Nonidet-P40 (Sigma)] were added and the mixture was incubated for 15 min at 22° C. to allow pre-binding of the test compounds to the enzyme before the start of the kinase reaction. Then the kinase reaction was started by the addition of 3 microL of a solution of adenosine-tri-phosphate (ATP, 3.3 millimol/L=>final conc. in the 5 microL assay volume is 2 millimol/L) and substrate (1.25 micromol/L =>final conc. in the 5 microL assay volume is 0.75 micromol/L) in assay buffer and the resulting mixture was incubated for a reaction time of 25 min at 22° C. The concentration of CDK9/CycT1 was adjusted depending of the activity of the enzyme lot and was chosen appropriate to have the assay in the linear range, typical concentrations were in the range of 0.5 microg/mL. The reaction was stopped by the addition of 3 microL of a solution of TR-FRET detection reagents (0.33 micromol/L streptavidine-XL665 [Cisbio Bioassays, Codolet, France] and 1.67 nanomol/L anti-RB(pSer807/pSer811)-antibody from BD Pharmingen [#558389] and 2 nanomol/L LANCE EU-W1024 labeled anti-mouse IgG antibody [Perkin-Elmer, product no. AD0077]) in an aqueous EDTA-solution (167 millimol/L EDTA, 0.2% (w/v) bovine serum albumin in 100 millimol/L HEPES pH 7.5).
The resulting mixture was incubated 1 h at 22° C. to allow the formation of complex between the phosphorylated biotinylated peptide and the detection reagents. Subsequently the amount of phosphorylated substrate was evaluated by measurement of the resonance energy transfer from the Eu-chelate to the streptavidine-XL. Therefore, the fluorescence emissions at 620 nm and 665 nm after excitation at 350 nm was measured in a TR-FRET reader, e.g. a Pherastar (BMG Labtechnologies, Offenburg, Germany) or a Viewlux (Perkin-Elmer). The ratio of the emissions at 665 nm and at […] was taken as the measure for the amount of phosphorylated substrate. The data were normalised (enzyme reaction without inhibitor=0% inhibition, all other assay components but no enzyme=100% inhibition).
For `Cc1ccc2[nH]c(CNc3nn(C4CCN(C)CC4)c4nc(C5CC5)cnc34)nc2c1` [Example 6, 6-cyclopropyl-N-[(5-methyl-1H-benzimidazol-2-yl)methyl]-1-(1-methylpiperidin-4-yl)-1H-pyrazolo[3,4-b]pyrazin-3-amine], the IC50 is not below 12.7 µM.

Take `CC(C)n1nc(NCc2nc3ccccc3[nH]2)c2ncc(C3CC3)nc21` [Example 14, N-[(1H-benzimidazol-2-yl)methyl]-6-cyclopropyl-1-(propan-2-yl)-1H-pyrazolo[3,4-b]pyrazin-3-amine]: the IC50 was more than 20 µM.

Regarding `Cn1nc(NCc2nc3ccccc3[nH]2)c2ncc(C3CC3)nc21` [Example 15, N-[(1H-benzimidazol-2-yl)methyl]-6-cyclopropyl-1-methyl-1H-pyrazolo[3,4-b]pyrazin-3-amine], the IC50 is more than 20 µM.

On to `CN1CCC(n2nc(NCc3nc4cc(SC(F)(F)F)ccc4[nH]3)c3ncc(C4CC4)nc32)CC1` [Example 27, 6-cyclopropyl-1-(1-methylpiperidin-4-yl)-N-({5-[(trifluoromethyl)sulfanyl]-1H-benzimidazol-2-yl}methyl)-1H-pyrazolo[3,4-b]pyrazin-3-amine], for which the IC50 is more than 20 µM.

For the compound `O[C@H]1CC[C@@H](n2nc(NCc3nc4ccccc4[nH]3)c3ncc(C4CC4)nc32)CC1` [Example 51, cis-4-(3-{[(1H-benzimidazol-2-yl)methyl]amino}-6-cyclopropyl-1H-pyrazolo[3,4-b]pyrazin-1-yl)cyclohexan-1-ol], the IC50 was more than 20 µM.

`CC1(C)CC(n2nc(NCc3nc4ccccc4[nH]3)c3ncc(C4CC4)nc32)CC(C)(C)O1` [Example 52, N-[(1H-benzimidazol-2-yl)methyl]-6-cyclopropyl-1-(2,2,6,6-tetramethyloxan-4-yl)-1H-pyrazolo[3,4-b]pyrazin-3-amine]: the IC50 was more than 20 µM.

With `c1ccc2[nH]c(CNc3nn(C4CC5(COC5)C4)c4nc(C5CC5)cnc34)nc2c1` [Example 54, N-[(1H-benzimidazol-2-yl)methyl]-6-cyclopropyl-1-(2-oxaspiro[3.3]heptan-6-yl)-1H-pyrazolo[3,4-b]pyrazin-3-amine], the IC50 was more than 20 µM.

Take `c1ccc2[nH]c(CNc3nn(C4COC4)c4nc(C5CC5)cnc34)nc2c1` [Example 55, N-[(1H-benzimidazol-2-yl)methyl]-6-cyclopropyl-1-(oxetan-3-yl)-1H-pyrazolo[3,4-b]pyrazin-3-amine]: the IC50 is more than 20 µM.

In the case of `O[C@H]1CC[C@H](n2nc(NCc3nc4cc(F)ccc4[nH]3)c3ncc(C4CC4)nc32)CC1` [Example 56, trans-4-(6-cyclopropyl-3-{[(5-fluoro-1H-benzimidazol-2-yl)methyl]amino}-1H-pyrazolo[3,4-b]pyrazin-1-yl)cyclohexan-1-ol], the IC50 is more than 20 µM.
